Laboratory results reported in paper PMC6474902, “Examination of novel 4-aminoquinoline derivatives designed and synthesized by a hybrid pharmacophore approach to enhance their anticancer activities” (Scientific Reports, 2019).
Entries after “also recorded” stand apart in the source; their conditions may differ.

Tests used:
Format in all cases: cell-based, human
NCI-60 cancer panel = NCI-60 cancer panel screening; settings: screening carried out by the USA National Cancer Institute
Protocol: Therefore, we examined its effects on several cellular and molecular biological aspects to gain a better understanding about its mode of function. […]
compound 13 show s effective grow th inhibition on a w ide range of cancers. Screening of compound 13 with the NCI-60 cancer panel was carried out by the USA National Cancer Institute.
(1 picture or pasted object on this page, not shown here)

[1] = system: MDA-MB231, MDA-MB468, MCF7 breast cancer cells; 184B5 and MCF10A non-cancer breast cells; assay: SRB assay, panel of breast cancer and non-cancer breast cell lines; settings: judged from GI50 values of Table 1
Protocol: The antigrowth effects of 4-piperazinylquinoline sulfonyl analogs on human breast tumor cells was initially evaluated using MDA-MB468 (a PTEN defective, EGFR positive breast adenocarcioma), MDA-MB231 (p53 and pRB mutated, triple-negative breast carcinoma), and MCF7 (p53+/−, invasive ductal breast carcinoma) cell lines. In addition, the cytotoxicity of all the compounds was also evaluated with the 184B5 and MCF10A non-cancer immortalized breast epithelial cell lines, to determine if these newly synthesized compounds have differential cytotoxic effects on cancer and non-cancer cells. The panel of three breast cancer cell lines with different genetic back ground and the well-studied two non-cancer immortalized breast cell lines would provide insights into the efficacy and toxicity of the test compounds in the different genetic background and at different stages of tumor development. The dose response of each cell line was established by determining the number of viable cells after 48 h of continuous drug treatment against seven different concentrations (100 µM to 0.0064 µM) of each compound. The reading of sulphorodamine B (SRB) staining is known to accurately reflect the level of total cellular macromolecules/cell growth/proliferation[6],[23]. […] The data for CQ and cisplatin were included as references. […] The differences in the GI50 values may be attributable to such factors as the nature of the sulfonyl group and the halogen substitution on the 7th position of the 4-piperazinylquinoline ring system, and the genetic and biochemical background of the cell lines.
Antiproliferative/antigrowth effects were determined by a SRB-based protocol[6],[23]. For a typical screening experiment, 5,000–10,000 cells were inoculated into 100 µL medium per well of a 96-well microtiter plate as described previously. Briefly, after the inoculation, the microtiter plate was incubated at 37 °C, 5% CO2, 95% air and 100% relative humidity for 24 h, prior to addition of experimental drugs. Some of the sample wells were fixed with 25 µL of 50% tricholoroacetic acid (TCA) as a control of the cell population for each cell line at the time of drug addition (Tz). An aliquot of the frozen stock was thawed and diluted to a desired final maximum test-concentration with complete medium. Two to ten-fold serial dilutions were made to provide a total of seven drug concentrations (and a control [C]). Following addition of drugs, the culture plate was incubated for additional 48 h. Cells were fixed in situ by slowly adding 25 µL of ice-cold 50% (w/v) TCA (final concentration, 10% TCA), and were then incubated for 60 min at 4 °C. The supernatant was discarded, and the plate was washed five times with tap water, followed by air-dry. 50 µL of SRB solution at 0.4% (w/v) in 1% acetic acid was added to each well, and the plate was incubated for >30 min at room temperature. Unbound SRB was removed by five washes with tap water, followed by air-drying. The cells “stained” with SRB were solubilized with 10 mM trizma base, and the absorbance was read on an automated plate reader at a wavelength of 515–564 nm. The relative growth rate (%) was calculated for each of the compound concentrations according to the following formula: (Ti−Tz)/(C−Tz)×100
In the formula, time zero (Tz), control growth (C), and OD for different concentration of tested compounds (Ti). The GI50 for each compound was obtained from a non-linear Sigmoidal dose-response (variable slope) curve which is fitted by GraphPad Prism v.4.03 software. Values were calculated for each of these parameters if the level of activity was reached. However, if the effect was not reached or was exceeded, the value for that parameter was expressed as greater or less than the maximum or minimum concentration tested.

MCF7 cells = assay: LysoTracker Red staining of lysosomal volume; settings: 5 μM, 48 h
Protocol: Since the structure of compound 13 contains the main scaffold of CQ, we examined whether cells treated with compound 13 also results an increase in the lysosomal volume.
Figure 7 Lysosomal volumes are increased in MCF7 cells treated with compound 13. Lysomes were visualized by treating MCF7 cells with lysoTracker Red for 48 h in the absence (Sham) or presence of 5 μM compound 13. The nuclei of cells in rows a and c were visualized by staining with DRAQ5. Note that rows a, c and e are enlarged images.
LysoTracker Red sDND-99 staining was carried out as recommended by the manufacturer (Molecular Probes, Eugene, OR). Briefly, cells grown on a cover slip were incubated in 50 nM LysoTracker Red DND-99 in serum-free RPMI-1640 medium for 30 min and then rinsed once with serum-free medium. The cells were washed three times with ice-cold medium, incubated in fresh medium for 45 min at 37 °C, and then washed once with fresh medium. Subsequently, the cells were examined by fluorescence microscopy using two filters (for green and red images) sequentially. Merging the two color images was done using Northern Eclipse software.

MDA-MB468 = assay: SRB antiproliferative/antigrowth assay; settings: Homo sapiens, MDA-MB-468, 48 h, read-out: GI50 MB468
How it was run: (§1)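 Cells seeded 24 h before exposure to seven concentrations (100 µM to 0.0064 µM) for 48 h at 37 °C. Growth by TCA fixation and SRB staining, absorbance 515–564 nm, relative to time-zero and untreated controls; GI50 from variable-slope sigmoidal fit, reported as greater/less than range limits when not reached.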

MDA-MB231 = assay: SRB antiproliferative/antigrowth assay; settings: Homo sapiens, MDA-MB-231, 48 h, read-out: GI50 MB231
How it was run: as §1

[2] = system: Cdk1, Cdc25C, Wee1 in HeLa S3 cells; assay: Western blot of G2-M-G1 regulators after nocodazole release; settings: 10 µM
Protocol: To gain a better understanding about the molecular mechanism of compound 13 on antigrowth/cell-killing, HeLa S3 cells synchronized at G1/S by double thymidine treatment (DT) (Fig. 4b) were released into complete medium for 6 h, at which time most cells are at late S-G2/M phase (Fig. 4c). The cells were then maintained for additional 6 h in the absence (Fig. 4d) or presence of 10 μM compound 13 (Fig. 4e). More than 62% of cells progressed into G1 of the next cell cycle in the sham control (Fig. 4d). […] Since the level of securin is low, cell cycle is likely arrested prior to the chromatin separation stage in the presence of compound 13.
Figure 5 Compound 13-treated cells are arrested at prometa-metaphase through the inactivation of Cdk1. HeLa S3 cells were synchronized at G2/M phase by incubating in 50 ng/ml nocodazole (noco) for 18 h. The cells were then released into complete medium at time 0 h in the absence (Sham) or presence of 10 µM compound 13. Samples were then taken at the indicated times post-nocodazole. […] (b) Cdk1 may be inactivated by the combination of a high level of Wee1 kinase and inactivation of Cdc25C. The relative intensity of band signals are quantified by densitometry and presented the results in Supplementary Fig. S3.
Western blot and densitometry were carried out as we described previously[29],[30].

In the case of O=[N+]([O-])c1ccc(S(=O)(=O)N2CCN(c3ccnc4cc(Cl)ccc34)CC2)c([N+](=O)[O-])c1 [Compound 13, 7-Chloro-4-(4-(2,4-dinitrophenylsulfonyl)piperazin-1-yl)quinoline], the “growth inhibition in NCI-60 cancer panel (in words)” value (NCI-60 cancer panel) is reported as “effective on many different human cancers”, the “preferential antigrowth effect on cancer versus non-cancer cells (in words)” value [1] is reported as “effective and preferential antigrowth effects on cancer cells; also recorded: stronger antigrowth/antiproliferation activity against cancer cells than non-cancer cells” and the lysosomal volume (MCF7 cells) is reported as “substantial increase in lysosomal volume”. For the same compound, the GI50 (MDA-MB468) was 700 ± 100 nM, the GI50 (MDA-MB231) was 3400 ± 100 nM and the “Cdc25C phosphatase activity status” value ([2]; 2–3 h post-nocodazole) was “almost completely inactive”. For the same compound, the “phosphorylation of Thr161 and Tyr15 on Cdk1” value ([2]; 2–3 h post-nocodazole) was “highly phosphorylated” and the Wee1 activity status ([2]; 3 h post-nocodazole) was “very active”.
